# Numbered stars: 1 amine (or outer) side, 2 acyl side, 3 side chain; on linkers, the order of the positions; unused ones are H or OH. Bridge positions count the residues as written; N and C are the ends. Square brackets hold non-standard residues; d marks the D form. Peptide text beside a SMILES is read from it. * marks the point of attachment. hPhe(3,5-F2-4-CF3) = N[C@@H](CCc1cc(F)c(C(F)(F)F)c(F)c1)C(=O)O; NMeAbu(3,3-F2-piperidino) = CN[C@@H](CCN1CCCC(F)(F)C1)C(=O)O; hPhe(3-Cl-4-CF3) = N[C@@H](CCc1ccc(C(F)(F)F)c(Cl)c1)C(=O)O; hPhe(3-F,4-CF3) = N[C@@H](CCc1ccc(C(F)(F)F)c(F)c1)C(=O)O; NMePhe(4-CF3) = CN[C@@H](Cc1ccc(C(F)(F)F)cc1)C(=O)O; Phe(2-F,5-Br) = N[C@@H](Cc1cc(Br)ccc1F)C(=O)O; NMeAbu(4,4,4-F3) = CN[C@@H](CC(F)(F)F)C(=O)O; NMePhe(4-Cl) = CN[C@@H](Cc1ccc(Cl)cc1)C(=O)O; NMePhe(4-Me) = CN[C@@H](Cc1ccc(C)cc1)C(=O)O; NMedβ3hAla = C[C@H](CC(=O)[*:2])N(C)[*:1]; NMeGly(cPent) = CN[C@H](C(=O)O)C1CCCC1; Pro(4,4-F2) = O=C(O)[C@@H]1CC(F)(F)CN1; NMe4Pal = CN[C@@H](Cc1ccncc1)C(=O)O; NMeY = CN[C@@H](Cc1ccc(O)cc1)C(=O)O; NMeCha = CN[C@@H](CC1CCCCC1)C(=O)O; NMehLeu = CN[C@@H](CCC(C)C)C(=O)O; NMeChg = CN[C@H](C(=O)O)C1CCCCC1; NMeF = CN[C@@H](Cc1ccccc1)C(=O)O; NMeI = CC[C@H](C)[C@H](NC)C(=O)O; NMeD = CN[C@@H](CC(=O)O)C(=O)O; NMeL = CN[C@@H](CC(C)C)C(=O)O; NMeV = CN[C@H](C(=O)O)C(C)C; d(β3hA) = C[C@@H](N)CC(=O)O; NMeAbu = CC[C@H](NC)C(=O)O; NMeA = CN[C@@H](C)C(=O)O; NMeAib = CNC(C)(C)C(=O)O; Nle = CCCC[C@H](N)C(=O)O; Piperidide = C1CCN(*)CC1; Pyrrolidide = C1CCN(*)C1; dNMeA = CN[C@H](C)C(=O)O; Ac5c = NC1(C(=O)O)CCCC1; Aze = O=C(O)[C@@H]1CCN1; Thp = NC1(C(=O)O)CCOCC1; NEtG = CCNCC(=O)O; Sar = CNCC(=O)O
# Test system: Human pancreatic cancer cell line AsPC-1 (G12D mutation Kras)
# Assay: AsPC-1 cell growth inhibition (AsPC-1 CGI)
# Format: cell-based
# Conditions: read-out: AsPC-1 cell growth inhibition, 50% growth inhibitory concentration (IC50 value); 96 hours, CellTiter-Glo, values classified in ranges
# Method: Test compounds were serially dilated with dimethyl sulfoxide, and 200 nL was then dispensed to a U-bottom 96-well plate using Labcyte Echo. […] The cell suspension was dispensed to a. plate containing a test compound at 100 μL per well and incubated at 37° C. in a 5% carbon dioxide gas incubator. 96 hours later, 80 μL of CellTiter-Glo (Promega) was added to each well and fluorescence was measured.
row,Compound,IC50 [nM]
1,CC[C@H](C)[C@@H]1NC(=O)[C@H](CCC(C)C)N(C)C(=O)C[C@@H](C(=O)N2CCCC2)N(C)C(=O)[C@H]([C@@H](C)CC)N(C)C(=O)C2(CCCC2)NC(=O)[C@@H]2CCCN2C(=O)[C@H](CCc2ccc(C(F)(F)F)c(Cl)c2)NC(=O)CN(C)C(=O)[C@H](Cc2ccc(C(F)(F)F)cc2)N(C)C(=O)[C@@H]2CCN2C(=O)[C@H](C)N(C)C1=O [Compound 1289] ([NMehLeu]I[NMeA][Aze][NMePhe(4-CF3)][Sar][hPhe(3-Cl-4-CF3)]P[Ac5c][NMeI][NMeD]-Pyrrolidide; lactam N-11),≤ 20
2,"CCCC[C@@H]1NC(=O)[C@H](Cc2cc(Br)ccc2F)NC(=O)CN(C)C(=O)[C@H](Cc2ccc(OC)cc2)N(C)C(=O)[C@@H]2CCN2C(=O)[C@H](C)N(C)C(=O)[C@H]([C@@H](C)CC)NC(=O)[C@H](CC)N(C)C(=O)C[C@@H](C(=O)N2CCCCC2)N(C)C(=O)[C@H](CC(C)C)NC(=O)C(C)(C)N(C)C1=O [Compound 1177] ([NMeAbu]I[NMeA][Aze][NMeY](Me)[Sar][Phe(2-F,5-Br)][Nle][NMeAib]L[NMeD]-Piperidide; lactam N-11)",> 500
3,"CC[C@H](C)[C@@H]1NC(=O)[C@H](CC(C)C)N(C)C(=O)C[C@@H](C)N(C)C(=O)[C@H](CC(C)C)N(C)C(=O)C2(CCOCC2)NC(=O)[C@@H]2CCCN2C(=O)[C@H](CCc2ccc(C(F)(F)F)c(F)c2)NC(=O)CN(C)C(=O)[C@H](CC2CCCCC2)N(C)C(=O)CN(C)C(=O)CN(C)C1=O [Compound 407] (cyclo(I[Sar][Sar][NMeCha][Sar][hPhe(3-F,4-CF3)]P[Thp][NMeL][NMedβ3hAla][NMeL]))",> 500
4,CC(C)C[C@H]1C(=O)N[C@@H](CO)C(=O)N(C)CC(=O)N(C)CC(=O)N(C)[C@@H](CC2CCCCC2)C(=O)N(C)CC(=O)N[C@@H](CCc2ccc(C(F)(F)F)c(Cl)c2)C(=O)N2CCC[C@H]2C(=O)NC2(CCCC2)C(=O)N(C)[C@@H](C2CCCCC2)C(=O)N(C)[C@H](C(=O)N2CCCCC2)CC(=O)N1C [Compound 1799] ([NMeL]S[Sar][Sar][NMeCha][Sar][hPhe(3-Cl-4-CF3)]P[Ac5c][NMeChg][NMeD]-Piperidide; lactam N-11),> 500
5,CC[C@H](C)[C@@H]1NC(=O)[C@H](CC(C)C)N(C)C(=O)C[C@@H](C)NC(=O)[C@H](C(C)C)N(C)C(=O)C2(CCCC2)NC(=O)[C@@H]2CCCN2C(=O)[C@H](CCc2ccc(C(F)(F)F)c(Cl)c2)NC(=O)CN(C)C(=O)[C@H](CC2CCCCC2)N(C)C(=O)CN(C)C(=O)CN(CC)C1=O [Compound 210] (cyclo([Ac5c][NMeV][d(β3hA)][NMeL]I[NEtG][Sar][NMeCha][Sar][hPhe(3-Cl-4-CF3)]P)),> 500
6,CC[C@H](C)[C@@H]1NC(=O)[C@H](C)N(C)C(=O)C[C@@H](C)NC(=O)[C@H](C(C)C)N(C)C(=O)[C@H](Cc2ccccc2)N(C)C(=O)[C@H](CC(C)C)N(C)C(=O)[C@H](CCc2ccc(C(F)(F)F)c(Cl)c2)NC(=O)CN(C)C(=O)[C@H](Cc2ccc(Cl)cc2)N(C)C(=O)CN(C)C(=O)CN(C)C1=O [Compound 1079] (cyclo(I[Sar][Sar][NMePhe(4-Cl)][Sar][hPhe(3-Cl-4-CF3)][NMeL][NMeF][NMeV][d(β3hA)][NMeA])),> 500
7,CC[C@H](C)[C@@H]1NC(=O)[C@H](CC(C)C)N(C)C(=O)C[C@@H](C(=O)N(C)C)N(C)C(=O)[C@H]([C@@H](C)CC)N(C)C(=O)[C@H](C)NC(=O)[C@H](Cc2ccncc2)N(C)C(=O)[C@H](CCc2ccc(C(F)(F)F)c(Cl)c2)NC(=O)CN(C)C(=O)[C@H](Cc2ccc(C)cc2)N(C)C(=O)[C@@H]2CCN2C(=O)[C@H](C)N(C)C1=O [Compound 1973] ([NMeL]I[NMeA][Aze][NMePhe(4-Me)][Sar][hPhe(3-Cl-4-CF3)][NMe4Pal]A[NMeI][NMeD]-NMe2; lactam N-11),> 500
8,"CC[C@H](C)[C@@H]1NC(=O)[C@H](CC(C)C)N(C)C(=O)C[C@@H](C(=O)N(C)C)N(C)C(=O)[C@H](C2CCCC2)N(C)C(=O)[C@H](C)NC(=O)[C@H](CCN2CCCC(F)(F)C2)N(C)C(=O)[C@H](CCc2ccc(C(F)(F)F)c(Cl)c2)NC(=O)CN(C)C(=O)[C@H](CC2CCCCC2)N(C)C(=O)[C@@H]2CCN2C(=O)[C@H](C)N(C)C1=O [Compound 1081] ([NMeL]I[NMeA][Aze][NMeCha][Sar][hPhe(3-Cl-4-CF3)][NMeAbu(3,3-F2-piperidino)]A[NMeGly(cPent)][NMeD]-NMe2; lactam N-11)",> 500
9,"CC[C@H](C)[C@@H]1NC(=O)[C@H](CC(F)(F)F)N(C)C(=O)C[C@@H](C(=O)N2CCCC2)N(C)C(=O)[C@H](C2CCCCC2)N(C)C(=O)C2(CCCC2)NC(=O)[C@@H]2CC(F)(F)CN2C(=O)[C@H](CCc2cc(F)c(C(F)(F)F)c(F)c2)NC(=O)CN(C)C(=O)[C@H](Cc2ccc(C(F)(F)F)cc2)N(C)C(=O)CN(C)C(=O)CN(C)C1=O [Compound 1303] ([NMeAbu(4,4,4-F3)]I[Sar][Sar][NMePhe(4-CF3)][Sar][hPhe(3,5-F2-4-CF3)][Pro(4,4-F2)][Ac5c][NMeChg][NMeD]-Pyrrolidide; lactam N-11)",≤ 20
10,CC[C@H](C)[C@@H]1NC(=O)[C@H](C)N(C)C(=O)C[C@@H](C(=O)N2CCCC2)N(C)C(=O)[C@H](C(C)C)N(C)C(=O)C2(CCCC2)NC(=O)[C@@H]2CCCN2C(=O)[C@H](CCc2ccc(C(F)(F)F)c(Cl)c2)NC(=O)[C@@H](C)N(C)C(=O)[C@H](CC2CCCCC2)N(C)C(=O)[C@@H]2CCCN2C(=O)CN(C)C1=O [Compound 1715] ([NMeA]I[Sar]P[NMeCha][dNMeA][hPhe(3-Cl-4-CF3)]P[Ac5c][NMeV][NMeD]-Pyrrolidide; lactam N-11),> 500

# Reference: patent US20240148821A1, “PHARMACEUTICAL USE OF CYCLIC PEPTIDE COMPOUND” (CHUGAI SEIYAKU KABUSHIKI KAISHA, priority 2021, published 2024)
